The target of data set [1] is T1, human QC (Homo sapiens, UniProt Q16769).
T1 construct: The cDNA of the mature QC starting with codon 38 was fused in frame with the plasmid encoded 6× histidine tag; 6x histidine; made in house; host or cells: Pichia pastoris X33 (pPICZαB) or E. coli M15 (pQE-31)
The experiment in a line: QC inhibition by chelators (inhibitor assay). It counts as biochemical. Conditions: human QC and other animal QCs. How it is done:
QC activity was evaluated fluorometrically using H-Gln-βNA. The samples consisted of 0.2 mM fluorogenic substrate, 0.25 U pyroglutamyl aminopeptidase (Unizyme, Horsholm, Denmark) in 0.2 M Tris/HCl, pH 8.0 containing 20 mM EDTA and an appropriately diluted aliquot of QC in a final volume of 250 μl. Excitation/emission wavelengths were 320/410 nm. The assay reactions were initiated by addition of glutaminyl cyclase. QC activity was determined from a standard curve of β-naphthylamine under assay conditions.
Reactions were carried out at 30° C. utilizing the NOVOStar reader for microplates (BMG labtechnologies). The samples consisted of varying concentrations of the fluorogenic substrate, 0.1 U pyroglutamyl aminopeptidase (Qiagen) in 0.05 M Tris/HCl, pH 8.0 containing 5 mM EDTA and an appropriately diluted aliquot of QC in a final volume of 250 μl. Excitation/emission wavelengths were 380/460 nm. The assay reactions were initiated by addition of glutaminyl cyclase. QC activity was determined from a standard curve of 7-amino-4-methylcoumarin under assay conditions. The kinetic data were evaluated using GraFit software.
This novel assay was used to determine the kinetic parameters for most of the QC substrates.
The initial velocities were evaluated and the enzymatic activity was determined from a standard curve of ammonia under assay conditions. All samples were measured at 30° C., using either the […]uor Plus or the Sunrise (both from TECAN) reader for microplates. Kinetic data was evaluated using GraFit software.
For inhibitor testing, the sample composition was the same as described above, except for the putative inhibitory compound added. For a rapid test of QC-inhibition, samples contained 4 mM of the respective inhibitor and a substrate concentration at 1 KM. For detailed investigations of the inhibition and determination of Ki-values, influence of the inhibitor on the auxiliary enzymes was investigated first. […] The inhibitory constant was evaluated by fitting the set of progress curves to the general equation for competitive inhibition using GraFit software.

The subject of data set [2] is mammalian QC. Conditions: Busby et al. 1987 and later reports; cited from earlier work.
Data set [3] in a line: Nonenzymatic turnover (cyclization) of model substrates. It counts as physicochemical. Conditions: without enzyme.
Data set [4] concerns QC. The experiment in a line: pH-dependence of the QC catalyzed conversion of Glu-βNA. It counts as biochemical.
The conditions of data set [5]: cited from earlier work.

Here are results for 8 compounds from patent US20080200567A1, “IN VIVO SCREENING MODELS FOR TREATMENT OF ALZHEIMER'S DISEASE AND OTHER QPCT-RELATED DISORDERS” (PROBIODRUG AG, priority 2007, published 2008).

T1 sequence (Q16769 29-361): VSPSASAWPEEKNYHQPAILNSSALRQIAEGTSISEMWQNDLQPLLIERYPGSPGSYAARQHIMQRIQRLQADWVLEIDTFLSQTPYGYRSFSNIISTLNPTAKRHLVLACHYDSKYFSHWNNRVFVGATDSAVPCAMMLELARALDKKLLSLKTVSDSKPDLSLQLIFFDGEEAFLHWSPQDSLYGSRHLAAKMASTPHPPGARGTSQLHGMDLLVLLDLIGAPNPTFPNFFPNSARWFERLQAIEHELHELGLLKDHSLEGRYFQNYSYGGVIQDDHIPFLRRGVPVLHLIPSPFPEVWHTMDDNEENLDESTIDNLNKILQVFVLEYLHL

Regarding `c1cnc2c(c1)ccc1cccnc12` [1,10-phenanthroline], the “inhibition characteristics of QC by chelators” value (“inhibition characteristics” below) in data set [1] is reported as “inhibition”. For the same compound, the “Inhibition of a mammalian QC” value in data set [2] is reported as “detected”.
For `Oc1cccc2cccnc12` [8-hydroxy-quinoline], the “inhibition characteristics” value in data set [1] is “inhibition”.
Turning to `O=C(O)CN(CCN(CC(=O)O)CC(=O)O)CC(=O)O` [EDTA], in data set [2], the “Inhibition of a mammalian QC” value is given as “did not inhibit”.
For the compound `NC(=O)CC[C@H](N)C(=O)Nc1ccc2ccccc2c1` [Gln-NA, Glutaminyl-beta-naphthylamine], the nonenzymatic turnover result in data set [3] was “negligible”.
Regarding `N[C@@H](CCC(=O)O)C(=O)Nc1ccc2ccccc2c1` [Glu-βNA], in data set [3], the nonenzymatic turnover entry is listed as “negligible”. Besides, in data set [4], the “kinetically determined pKa-value” was 7.55+/−0.02 and the pH-optimum of catalysis is listed as approximately 6.0.
With `N[C@@H](CCC(=O)O)C(=O)O` [Glutamate], in data set [5], the “pKa-value for the α-amino moiety” value is approximately 7.5 and the “pKa-value for the γ-carboxylic moiety” value was “about 4.2”.
For the compound `O=C(O)c1cccc(C(=O)O)n1` [dipicolinic acid], in data set [1], the “inhibition characteristics” value is “inhibition”.
As to reduced 6-methylpterin, the “Inhibition of a mammalian QC” value in data set [2] is “detected”.
